This is an account of results in patent publication US20130123287A1, “CONTROL AGENT FOR SOFT ROT AND CONTROL METHOD FOR THE SAME” (ISHIHARA SANGYO KAISHA, LTD., priority 2010, published 2013).

The subject of experiment [1] is bacteria causing the soft rot (Erwinia carotovora). As to the kind of experiment: Inhibition test of growth of bacteria causing soft rot, Reference Test Example 1. Type of experiment: cell-based. The conditions noted are these: for formed colonies (growth state), grade: PSA medium, 25 degrees Celsius, 4 days. How it is done: (§1) An inhibition test of the growth of bacteria causing the soft rot was done, when a control agent was directly applied to the bacteria causing the soft rot. A given volume of each pesticide of cyazofamid (RANMAN 400SC [trade name] manufactured by Ishihara Sangyo Kaisha, Ltd.), amisulbrom (LEIMAY FLOWABLE [trade name], manufactured by Nissan Chemical Industries, Ltd.) and streptomycin (Mycin Wettable powder [trade name] manufactured by Hokko Chemical Industry Co., Ltd.) was added together with a suspension of the bacteria causing the soft rot (Erwinia carotovora) to a preliminarily dissolved PSA culture medium (55 degrees Celsius) for subsequent thorough agitation, which was then spread on a plate for culturing at 25 degrees Celsius for 4 days, to examine the growth state. Subsequently, the formed colonies were examined according to the following three grades. • +: at the same level as the level of non-treated lot.
(§2) Plus or minus: apparently less than the colonies of the non-treated lot. • −: almost no colonies observed.

Experiment [2] deals with soft rot of Chinese cabbage. Kind of experiment: Test for controlling soft rot of Chinese cabbage, Example 1 / Comparative Example 1 (field, cultivar Muso). The experiment is classed as in vivo. The settings on record: 250 g ai/10 a, 150 L/10 a sprayed onto planting holes before planting, 54 days after start. How it is done: 200 g/l Azoxystrobin (Amistar 20 FLOWABLE [trade name], manufactured by Syngenta Japan K.K.) was adjusted to 250 g ai/10a (0.25 g/m^2, 1250 ml Product/10a) as the amount of the active ingredient and to 150 L/10a as the volume of diluent water.
100 g/l Cyazofamid (RANMAN FLOWABLE [trade name], manufactured by Ishihara Sangyo Kaisha, Ltd.) was adjusted to 250 g ai/10a (0.25 g/m^2, 2500 ml Product/10a) as the amount of the active ingredient and to 150 L/10a as the volume of diluent water.
177 g/l Amisulbrom (LEIMAY FLOWABLE [trade name], manufactured by Nissan Chemical Industries, Ltd.) was adjusted individually to 250 g ai/10a (0.25 g/m^2, 1412 ml Product/10a) as the amount of the active ingredient and to 150 L/10a as the volume of diluent water.
After spreading an agricultural mulch-sheet and opening planting holes (diameter of about 9 cm) for permanent planting through the mulch-sheet, the spray solutions prepared as described above were sprayed onto the planting holes such that the amount of treated active ingredient of each spray solution was 0.25 g/m^2 (150 L per 10a), followed by air-drying; subsequently, seedlings of Chinese cabbage (cultivar: Muso) grown for 4 weeks in cell mold trays (128 holes/nursery box) were planted such that 30 seedlings were planted in each test lot having an area of 6 m^2 with two replications.
(§3) Preparation was performed by diluting streptomycin (Mycin 20 wettable powder solution [under the trade name] manufactured by Hokko Chemical Industry Co., Ltd.) with water to 1/1000.
In a field spread with the agricultural mulch-sheet, Chinese cabbage seedlings (cultivar: Muso) grown by the same method as in Example 1 were planted by the same method as in Example 1, for spraying the spray solution of streptomycin prepared above in (1) (at each spray volume of 300 L/10a) three times (13 days, 20 days and 27 days after the planting of the seedlings) on the stems and leaves.
54 days after the start of the tests, all the plants in each lot were examined about the severity level of the disease; according to the following equations, the ratio of the plants with the onset of the disease, the frequency of the disease, and the disease control value were calculated to determine and rank the effects at A to D levels. Because soft rot is a disease with damages hardly controlled, herein, even a chemical at the level C determined by the tests of the effects can practically be used.
Ratio of the plants with the onset of the disease=(Number of plants with the onset of the disease/number of plants examined)*100
Frequency of the disease=[sigma(number of plants with the onset of the disease at each severity level*index of the onset of the disease)/(plants examined*4)]*100 […]

Experiment [3] concerns soft rot of Chinese cabbage. Kind of experiment: Test for controlling soft rot of Chinese cabbage, Example 2 / Comparative Example 2 (field, cultivar Harebutai 65). Type of experiment: in vivo. The conditions noted are these: 500 g ai/10 a, 150 L/10 a sprayed onto planting holes before planting, 64 days after start.
Source text: (§4) Frequency of the disease=[sigma(number of plants with the onset of the disease at each severity level*index of the onset of the disease)/(plants examined*4)]*100
(§5) Disease control value=[1-(frequency of the disease in the treated lot/frequency of the disease in the non-treated lot)]*100
(§6) • 0: No onset • 1: Onset in some of outer leaves (shippable) • 2: Onset in outer leaves and some of head leaves (by removing damaged parts, the resulting cabbage can be shipped as small cabbage but is ranked as grade B). • 3: Most of head leaves are inflicted with the onset of the disease or with severer damages (not shippable) • 4: Whole cabbage plant is inflicted with the onset of the disease and is dead.
200 g/l Azoxystrobin (Amistar 20 FLOWABLE [trade name], manufactured by Syngenta Japan K.K.) was adjusted to 500 g ai/10a (0.5 g/m^2, 2500 ml Product/10a) as the amount of the active ingredient and to 150 L/10a as the volume of diluent water.
30% w/w triflumizol (TRIFUMIN WP [trade name], manufactured by Nippon Soda Co., Ltd.) was adjusted to 500 g ai/10a (0.5 g/m^2, 1667 g Product/10a) as the amount of the active ingredient and to 150 L/10a as the volume of diluent water.
100 g/1 cyazofamid (RANMAN PLOWABLE [trade name], manufactured by Ishihara Sangyo Kaisha, Ltd.) was adjusted to 500 g ai/10a (0.5 g/m^2, 5000 ml Product/10a) as the amount of the active ingredient and to 150 L/10a as the volume of diluent water.
50% w/w penthiopyrad (GAIA WG [trade name], manufactured by Mitsui Chemicals Agro, Inc.) was adjusted to 500 g ai/10a (0.5 g/m^2, 1000 g Product/10a) as the amount of the active ingredient and to 150 L/10a as the volume of diluent water.
50 g/l flusulfamide (SCABLOCK SC [trade name], manufactured by Mitsui Chemicals Agro, Inc.) was adjusted to 500 g ai/10a (0.5 g/m^2, 10000 ml Product/10a) as the amount of the active ingredient and to 150 L/10a as the volume of diluent water.
400 g/1 chlorothalonil (Daconil 1000 [the trade name], manufactured by Sumitomo Chemical, Limited) was adjusted to 1000 g ai/10a (1.0 g/m^2, 2500 ml Product/10a) as the amount of the active ingredient and to 150 L/10a as the volume of diluent water.
After spreading an agricultural mulch-sheet and opening planting holes (diameter of about 5 cm) for permanent planting through the mulch-sheet, the spray solutions prepared as described above were sprayed onto the planting holes such that the amount of treated active ingredient of chlorothalonil was 1.0 g/m^2 (150 L per 10a) and the amount of each of the remaining spray solutions was 0.5 g/m^2 (150 L per 10a), followed by air-drying; subsequently, seedlings of Chinese cabbage (cultivar Harebutai 65) grown for 4 weeks in cell mold trays (128 holes/nursery box) were planted such that 19 seedlings were planted in each test lot having an area of 2.4 m^2 with two replications.
as §3
In a field spread with the agricultural mulch-sheet, Chinese cabbage seedlings (cultivar: Harebutai 65) grown by the same method as in Example 2 were planted by the same method as in Example 2, for spraying the spray solution of streptomycin prepared above in (1) (at each spray volume of 300 L/10a) twice (27 days and 48 days after the planting of the seedlings) on the stems and leaves with a sprayer.
64 days after the start of the tests, all the plants in each lot were examined about the severity level of the disease to assess the frequency of the disease and the disease control value. In the same manner as described above, the frequency of the disease and the disease control value were determined. Additionally, soft rot is a disease with damages hardly controlled, so even a chemical at the level C determined by the tests of the effects can practically be used.

Experiment [4] has as its system bacteria causing the soft rot (Erwinia carotovora). As to the kind of experiment: Inhibition test of growth of bacteria causing soft rot, Reference Test Example 2. The experiment is classed as cell-based. The conditions noted are these: for formed colonies (growth state), grade: PSA medium, 27 degrees Celsius, 2 days.
Source text: as §1, with “Inhibition test of growth of bacteria causing soft rot of potato An” for “An”, “azoxystrobin (Amistar-20” for “cyazofamid (RANMAN 400SC [trade name] manufactured by Ishihara Sangyo Kaisha, Ltd.), amisulbrom (LEIMAY”, “Syngenta Japan K.K.), penthiopyrad (GAIA WG [trade name], manufactured by Mitsui Chemicals Agro, Inc.), flusulfamide (SCABLOCK SC [trade name] manufactured by Mitsui Chemicals Agro, Inc.),” for “Nissan Chemical Industries, Ltd.)”, “27” for “25”, “2” for “4”
as §2

Experiment [5] has as its system soft rot of Chinese cabbage. Kind of experiment: Test for controlling soft rot of Chinese cabbage, Example 3 / Comparative Example 3 (field, cultivar Muso). Type of experiment: in vivo. The settings on record: 500 g ai/10 a, 150 L/10 a sprayed onto planting holes before planting, 51 days after start.
Source text: as §4, §5, §6
442 g/l kresoxim-methyl (STROBY FLOWABLE [trade name], manufactured by BASF) was adjusted to 500 g ai/10a (0.5 g/m^2, 1131 ml Product/10a) as the amount of the active ingredient and to 150 L/10a as the volume of diluent water. […]
51 days after the start of the tests, all the plants in each lot were examined about the severity level of the disease to assess the frequency of the disease and the disease control value. The frequency of the disease and the disease control value were determined in the same manner as described above. Because soft rot is a disease with damages hardly controlled, herein, even a chemical at the level C determined by the tests of the effects can practically be used.

Experiment [6] concerns bacteria causing the soft rot (Erwinia carotovora). As to the kind of experiment: Inhibition test of growth of bacteria causing soft rot, Reference Test Example 6. The experiment is classed as cell-based. The settings on record: for formed colonies (growth state), grade: PSA medium, 27 degrees Celsius, 3 days.
Source text: as §1, with “fludioxonil (Seibia FL” for “cyazofamid (RANMAN 400SC”, “Syngenta Japan K.K.), iminoctadine albesilate salt (Bellkute WP” for “Ishihara Sangyo Kaisha, Ltd.), amisulbrom (LEIMAY FLOWABLE”, “Nippon Soda Co., Ltd.), iprodione (Rovral WP [trade name] manufactured by Bayer Crop Science Co., Ltd.),” for “Nissan Chemical Industries, Ltd.)”, “27” for “25”, “3” for “4”
as §2

The mark [7] stands for this setting: active ingredient concentration of 1,000 ppm.

For `Cc1ccc(-c2c(Cl)nc(C#N)n2S(=O)(=O)N(C)C)cc1` [Cyazofamid, 4-chloro-2-cyano-N,N-dimethyl-5-p-tolylimidazole-1-sulfoneamide], the “formed colonies (growth state), grade” value in experiment [1] (100 ppm active ingredient) was “+, +”; in experiment [1] (500 ppm active ingredient), “+, +”; in experiment [1] (1000 ppm active ingredient), “+, +”. Besides, in experiment [1] (setting [7]), the “inhibition of growth of Erwinia carotovora (in words)” value (from here on “inhibition”) is “never inhibited the growth”. Moreover, the Determination of effect entry is reported as “D (D: Poorly effective (20 or smaller disease control value))” in experiment [2] and “C (C: Effective at low level (21 to 40 disease control value))” in experiment [3].

Take `CO/C=C(/C(=O)OC)c1ccccc1Oc1cc(Oc2ccccc2C#N)ncn1` [Azoxystrobin, methyl=(E)-2-{2-[6-(2-cyanophenoxy)pyrimidin-4-yloxy]phenyl}-3-methoxyacrylate]: the “formed colonies (growth state), grade” value is recorded as “+, +” in experiment [4] (100 ppm active ingredient); “+, +” in experiment [4] (500 ppm active ingredient); “+, +” in experiment [4] (1000 ppm active ingredient). Besides, in experiment [4] (setting [7]), the “inhibition” value is “never inhibited the growth”. For the same compound, the Determination of effect result in experiment [2] was “C (C: Effective at low level (21 to 40 disease control value))”; in experiment [3], “B (B: Effective (41 to 60 disease control value))”.

Consider “1,1′-iminodi(octamethylene)diguanidinium=tris(alkylbenzenesulfonate) [Iminoctadine albesilate salt]”, for which the Determination of effect result in experiment [5] is listed as “B (B: Effective (41 to 60 disease control value))”. The “formed colonies (growth state), grade” value in experiment [6] (100 ppm active ingredient) is listed as “+, +”; in experiment [6] (500 ppm active ingredient), “+, +”; in experiment [6] (1000 ppm active ingredient) it was “+, +”. The “inhibition” value in experiment [6] (setting [7]) is reported as “never inhibited the growth”.
